Consider 2 compounds from patent US5132304A, “Benzothiazine derivatives and their applications as medicinal products or as synthesis intermediates for medicinal products” (Laboratorios Del Dr. Esteve, S. A., priority 1989, dated 1992).

The subject of this assay is carrageenan-induced oedema in Wistar rats. Description: Inhibition of carrageenan-induced oedema in Wistar rats 3 hours after oral administration. Type of assay: in vivo. The settings on record: p.o.; for Oedema inhibition: N=10, 3 hours after administration; for ED50: Rattus norvegicus, calculated from results 3 hours after oral administration, 2 hours after carrageenan. On the procedure: (Inhibition of carrageenan-induced oedema)
The method followed was that described by Winter et al. (Proc. Soc. Exp. Biol. Med. […]; 111; 544-547).
Inhibition of carrageenan-induced oedema in Wistar rats 3 hours after administration of the product: […]

Usually ED50 stands for the midpoint of the dose-response relation. Consider `CCOC(=O)OC1=C(C(=O)N(C(=O)OCC)c2ccccn2)N(C)S(=O)(=O)c2ccccc21` [Example 1, N-ethoxycarbonyl-N-(2-pyridyl)-4-ethoxy-carbonyloxy-2-methyl-2H-1,2-benzothiazine-3-carboxamide 1,1-dioxide], for which the ED50 was 5.6 mg/kg. The compound further showed an Oedema inhibition (2.5 mg/kg) of 33.8%. Further, the Oedema inhibition (5 mg/kg) is reported as 54.3%. This compound also came in with an Oedema inhibition (10 mg/kg) of 63.8%. Moreover, the Oedema inhibition (40 mg/kg) worked out at 65.5%.

As to `CCCCC1C(=O)N(c2ccccc2)N(c2ccccc2)C1=O` [Phenylbutazone, phenylbutazone, reference compound], the median effective dose (ED50) is 19.6 mg/kg. This compound also returned an Oedema inhibition (12.5 mg/kg) of 46.6%. Also, the Oedema inhibition (25 mg/kg) was 52.1%.
